Measured values reported in patent US8247211B2, “Glycopeptide antibiotics” (American Cyanamid Company, priority 2001, dated 2012).
Values after ≈ are worked out from the molar mass of the structure shown.

What was measured:
Assay in all cases: In vitro antibacterial evaluation: minimum inhibitory concentration (MIC), broth dilution method
Format in all cases: cell-based
Enterococcus sp. = tested on: Enterococcus sp.
Method in brief: (§1)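 NCCLS M7-A2 broth dilution with Mueller-Hinton II, testing 64-0.06 μg/mL antibiotic against 5×10^5 CFU/mL inocula. Test strains include recent methicillin-, penicillin- or vancomycin-resistant clinical isolates. MIC is the lowest concentration preventing growth.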

Staphylococcus sp. = conditions: for MIC Staphylococcus aureus (ATCC 29213) / MIC Staphylococcus aureus (GC 1131) / MIC Staphylococcus aureus (GC 3051) / MIC Staphylococcus aureus (GC 3053) / MIC Staphylococcus aureus (GC 4541) / MIC Staphylococcus aureus (GC 4542) / MIC Staphylococcus aureus (GC 4544) / MIC Staphylococcus aureus (GC 4545): broth dilution, 18 hours at 35° C.
Method in brief: as §1

Streptococcus sp. = tested on: Streptococcus sp.
Method in brief: as §1

Escherichia coli = tested on: Escherichia coli
Method in brief: as §1

[1] = broth dilution, inoculum 5×10^5 CFU/mL, 18 hours at 35° C.

MIC Enterococcus avium (GC 4558) (Enterococcus sp.; [1]): 4 µg/mL (≈ 2.61 µM)
MIC Enterococcus faecalis (ATCC 29212) (Enterococcus sp.; [1]): 2 µg/mL (≈ 1.31 µM)
MIC Enterococcus faecalis (GC 2242) (Enterococcus sp.; [1]): 2 µg/mL (≈ 1.31 µM)
MIC Enterococcus faecalis (GC 2691) (Enterococcus sp.; [1]): 4 µg/mL (≈ 2.61 µM)
MIC Enterococcus faecalis (GC 3059) (Enterococcus sp.; [1]): 4 µg/mL (≈ 2.61 µM)
MIC Enterococcus faecalis (GC 4552) (Enterococcus sp.; [1]): 2 µg/mL (≈ 1.31 µM)
MIC Enterococcus faecalis (GC 4553) (Enterococcus sp.; [1]): 1 µg/mL (≈ 0.653 µM)
MIC Enterococcus faecalis (GC 4554) (Enterococcus sp.; [1]): 2 µg/mL (≈ 1.31 µM)
MIC Enterococcus faecalis (GC 6189) (Enterococcus sp.; [1]): 2 µg/mL (≈ 1.31 µM)
MIC Enterococcus faecium (GC 2243) (Enterococcus sp.; [1]): 2 µg/mL (≈ 1.31 µM)
MIC Enterococcus faecium (GC 4556) (Enterococcus sp.; [1]): 4 µg/mL (≈ 2.61 µM)
MIC Enterococcus faecium (GC 4557) (Enterococcus sp.; [1]): 4 µg/mL (≈ 2.61 µM)
MIC Enterococcus faecalis (ATCC 29212) (Enterococcus sp.; strain ATCC 29212): 2 µg/mL (≈ 1.31 µM)
MIC Enterococcus faecalis (GC 2242) (Enterococcus sp.; strain GC 2242): 2 µg/mL (≈ 1.31 µM)
MIC Enterococcus faecium (GC 2243) (Enterococcus sp.; strain GC 2243): 2 µg/mL (≈ 1.31 µM)
MIC Enterococcus faecalis (GC 2691) (Enterococcus sp.; strain GC 2691): 4 µg/mL (≈ 2.61 µM)
MIC Enterococcus faecalis (GC 3059) (Enterococcus sp.; strain GC 3059): 4 µg/mL (≈ 2.61 µM)
MIC Enterococcus faecalis (GC 4552) (Enterococcus sp.; strain GC 4552): 2 µg/mL (≈ 1.31 µM)
MIC Enterococcus faecalis (GC 4553) (Enterococcus sp.; strain GC 4553): 1 µg/mL (≈ 0.653 µM)
MIC Enterococcus faecalis (GC 4554) (Enterococcus sp.; strain GC 4554): 2 µg/mL (≈ 1.31 µM)
MIC Enterococcus faecium (GC 4556) (Enterococcus sp.; strain GC 4556): 4 µg/mL (≈ 2.61 µM)
MIC Enterococcus faecium (GC 4557) (Enterococcus sp.; strain GC 4557): 4 µg/mL (≈ 2.61 µM)
MIC Enterococcus avium (GC 4558) (Enterococcus sp.; strain GC 4558): 4 µg/mL (≈ 2.61 µM)
MIC Enterococcus faecalis (GC 6189) (Enterococcus sp.; strain GC 6189): 2 µg/mL (≈ 1.31 µM)
MIC Staphylococcus aureus (ATCC 29213) (Staphylococcus sp.; 5×10^5 CFU/mL): 4 µg/mL (≈ 2.61 µM)
MIC Staphylococcus aureus (GC 1131) (Staphylococcus sp.; 5×10^5 CFU/mL): 4 µg/mL (≈ 2.61 µM)
MIC Staphylococcus aureus (GC 3051) (Staphylococcus sp.; 5×10^5 CFU/mL): 4 µg/mL (≈ 2.61 µM)
MIC Staphylococcus aureus (GC 3053) (Staphylococcus sp.; 5×10^5 CFU/mL): 4 µg/mL (≈ 2.61 µM)
MIC Staphylococcus aureus (GC 4541) (Staphylococcus sp.; 5×10^5 CFU/mL): 4 µg/mL (≈ 2.61 µM)
MIC Staphylococcus aureus (GC 4542) (Staphylococcus sp.; 5×10^5 CFU/mL): 4 µg/mL (≈ 2.61 µM)
MIC Staphylococcus aureus (GC 4544) (Staphylococcus sp.; 5×10^5 CFU/mL): 4 µg/mL (≈ 2.61 µM)
MIC Staphylococcus aureus (GC 4545) (Staphylococcus sp.; 5×10^5 CFU/mL): 4 µg/mL (≈ 2.61 µM)
MIC Staphylococcus aureus (ATCC 29213) (Staphylococcus sp.; strain ATCC 29213): 4 µg/mL (≈ 2.61 µM)
MIC Staphylococcus aureus (GC 1131) (Staphylococcus sp.; strain GC 1131): 4 µg/mL (≈ 2.61 µM)
MIC Staphylococcus aureus (GC 3051) (Staphylococcus sp.; strain GC 3051): 4 µg/mL (≈ 2.61 µM)
MIC Staphylococcus aureus (GC 3053) (Staphylococcus sp.; strain GC 3053): 4 µg/mL (≈ 2.61 µM)
MIC Staphylococcus aureus (GC 4541) (Staphylococcus sp.; strain GC 4541): 4 µg/mL (≈ 2.61 µM)
MIC Staphylococcus aureus (GC 4542) (Staphylococcus sp.; strain GC 4542): 4 µg/mL (≈ 2.61 µM)
MIC Staphylococcus aureus-SMITH (GC 4543) (Staphylococcus sp.; strain GC 4543): 4 µg/mL (≈ 2.61 µM)
MIC Staphylococcus aureus (GC 4544) (Staphylococcus sp.; strain GC 4544): 4 µg/mL (≈ 2.61 µM)
MIC Staphylococcus aureus (GC 4545) (Staphylococcus sp.; strain GC 4545): 4 µg/mL (≈ 2.61 µM)
MIC Coagulase Negative Staphylococcus (GC 4547) (Staphylococcus sp.; strain GC 4547): 8 µg/mL (≈ 5.22 µM)
MIC Coagulase Negative Staphylococcus (GC 4548) (Staphylococcus sp.; strain GC 4548): 2 µg/mL (≈ 1.31 µM)
MIC Coagulase Negative Staphylococcus (GC 4549) (Staphylococcus sp.; strain GC 4549): 1 µg/mL (≈ 0.653 µM)
MIC Coagulase Negative Staphylococcus (GC 4551) (Staphylococcus sp.; strain GC 4551): 2 µg/mL (≈ 1.31 µM)
MIC Coagulase Negative Staphylococcus (GC 6257) (Staphylococcus sp.; strain GC 6257): 2 µg/mL (≈ 1.31 µM)
MIC Streptococcus agalactiae (GC 4564) (Streptococcus sp.; [1]): <0.06 µg/mL
MIC Streptococcus pneumoniae (ATCC 6301) (Streptococcus sp.; [1]): <0.06 µg/mL
MIC Streptococcus pneumoniae (GC 1894) (Streptococcus sp.; [1]): <0.06 µg/mL
MIC Streptococcus pneumoniae (GC 4565) (Streptococcus sp.; [1]): <0.06 µg/mL
MIC Streptococcus pyogenes (GC 4563) (Streptococcus sp.; [1]): 0.5 µg/mL (≈ 0.326 µM)
MIC Streptococcus pneumoniae (ATCC 6301) (Streptococcus sp.; strain ATCC 6301): <0.06 µg/mL
MIC Streptococcus pneumoniae (GC 1894) (Streptococcus sp.; strain GC 1894): <0.06 µg/mL
MIC Streptococcus pyogenes (GC 4563) (Streptococcus sp.; strain GC 4563): 0.5 µg/mL (≈ 0.326 µM)
MIC Streptococcus agalactiae (GC 4564) (Streptococcus sp.; strain GC 4564): <0.06 µg/mL
MIC Streptococcus pneumoniae (GC 4565) (Streptococcus sp.; strain GC 4565): <0.06 µg/mL
MIC Escherichia coli (ATCC 25922) (Escherichia coli; strain ATCC 25922): >64 µg/mL
MIC Escherichia coli (GC 4559) (Escherichia coli; strain GC 4559): >64 µg/mL
MIC Escherichi coli (GC 4560) (Escherichia coli; strain GC 4560): 16 µg/mL (≈ 10.4 µM)
SMILES: CC(c1ccccc1)C1NC(=O)CNC(=O)C(CO)NC(=O)C(C(O)C2CNC(=N)N2C2OC(CO)C(O)C(O)C2O)NC(=O)C(C(O)C2CNC(=N)N2)NC(=O)C(Cc2ccc(OC3OC(CO)C(OC4OC5COC(c6ccc(Oc7ccc(C(C)(C)C)cc7)cc6)OC5C(O)C4O)C(O)C3O)cc2)NC1=O (stereo not drawn) [Example 181, Cyclo[glycyl-β-methylphenylalanyl-O-[4-O-[4,6-O-[4-(4-tert-butylphenoxy)benzylidene]hexopyranosyl]hexopyranosyl]tyrosyl-3-(2-iminoimidazolidin-4-yl)seryl-3-(3-hexopyranosyl-2-iminoimidazolidin-4-yl)serylseryl]]
MIC Staphylococcus haemolyticus (GC 4546) (Staphylococcus sp.; strain GC 4546): 8 µg/mL (≈ 5.22 µM)
